Results as given in patent US9307764B2, “Pesticidal diaryl—heterocyclyl derivatives” (BAYER INTELLECTUAL PROPERTY GMBH, priority 2011, dated 2016).

How the values were obtained:
Format in all cases: in vivo
[1] = system: Aulacophora femoralis; assay: Biological Test Example 2: Test on Aulacophora femoralis (cucumber leaf immersion); conditions: 100 ppm effective component concentration, 2nd-instar larvae, seven days later, 25° C.
Description: (§1) Unless other methods are mentioned specifically, the sample solution preparation was prepared as follows.
(§2) Solvent: 3 parts by weight of dimethyl formamide
(§3) Emulsifier: 1 part by weight of polyoxyethylene alkyl phenyl ether
(§4) To prepare a suitable concoction including the active compound, 1 part by weight of the active compound was mixed with the above amount of the solvent containing the above amount of the emulsifier, and the resulting mixture was diluted with water to predetermined concentrations.
Leaves of cucumbers were immersed in the water-diluted solution containing the active compound at the predetermined concentration which was prepared above and, after the solution was air-dried, the resultant leaves were put onto sterilized black soil in a plastic cup, into which five of the 2nd-instar larvae of Aulacophora femoralis were then released. The cup was covered with a lid and maintained in a temperature controlled room at 25° C. having humidity of 50 to 60%. Seven days later, the number of dead larvae was counted to calculate the pesticidal ratio. 100% pesticidal ratio means death of all the larvae, while 0% pesticidal ratio means no dead larvae.

[2] = system: Spodoptera litura; assay: Biological Test Example 3: Test on larvae of Spodoptera litura (method using artificial feeds); conditions: 100 ppm effective component concentration, 3rd-instar larvae, after 7 days, 25° C.
Description: as §1, §2, §3, §4
Powdery artificial feeds (trade name: SILK MATE, manufactured by Nihon Nosan Kogyo, Japan, 2.3 g) were added to a plastic cup (diameter: 7.5 cm, height: 4 cm) to achieve a certain thickness. Water-diluted liquid (5 mL) of the active compound prepared above having predetermined concentration was evenly poured thereto and allowed to stand until the feeds are solidified. Five of the 3rd-instar larvae of Spodoptera litura were released in each cup, and covered with a lid. The cups were put in a temperature controlled room at 25° C. having humidity of 50 to 60%, and the number of dead larvae after 7 days was determined to calculate the pesticidal ratio. 100% pesticidal ratio means death of all the larvae, while 0% pesticidal ratio means no dead larvae.

[3] = system: Tetranychus urticae; assay: Biological Test Example 1: Test on Tetranychus urticae (spray on Egyptian bean leaves); conditions: 100 ppm effective component concentration, adult mites, seven days later
Description: as §1, §2, §3, §4
50 to 100 of adult Tetranychus urticae were inoculated to leaves at 2-leaf stage of Egyptian bean planted in pots of 6 cm in diameter, to which, 1 day later, the above prepared water diluted solution of the active compound at the predetermined concentration was sufficiently sprayed with a spray gun. After the compounds were sprayed, the pots were left in a greenhouse and the acaricidal ratio was calculated seven days later. 100% acaricidal ratio means death of all the mites, while 0% acaricidal ratio means none of the mites were dead.

SMILES | pesticidal ratio [1] [%] | pesticidal ratio [2] [%] | acaricidal ratio [3] [%]
CCC(=O)NCc1ccc(N2CC(c3cc(Cl)c(Cl)c(Cl)c3)(C(F)(F)F)OS2=O)cc1C(F)(F)F (centres unmarked) [3-17, N-{4-[2-oxide-5-(3,4,5-trichlorophenyl)-5-(trifluoromethyl)-1,2,3-oxathiazolin-3-yl]-2-(trifluoromethyl)benzyl}propane amide] | 100 | 100 | 
CCC(=O)NCc1ccc(N2CC(c3cc(Cl)c(Cl)c(Cl)c3)(C(F)(F)F)OS2(=O)=O)cc1C(F)(F)F (centres unmarked) [5-17, N-{4-[2,2-dioxide-5-(3,4,5-trichlorophenyl)-5-(trifluoromethyl)-1,2,3-oxathiazolin-3-yl]-2-(trifluoromethyl)benzyl}propane amide] | 100 | 100 | 100
CCC(=O)NCc1ccc(N2COC(c3cc(Cl)c(Cl)c(Cl)c3)(C(F)(F)F)C2)cc1C(F)(F)F (centres unmarked) [Compound No. 1-17, N-{4-[5-(3,4,5-trichlorophenyl)-5-(trifluoromethyl)-1,3-oxazolidin-3-yl]-2-(trifluoromethyl)benzyl}propane amide] | 100 | 100 | 100
